Like-named read-outs stand apart in the source and are kept apart here.
Tests used:
flank organs hair growth = test: Golden Syrian hamster assay (flank organ hair mass); type: in vivo; conditions: topical, thirteen applications; for Treated (hair mass, mean ± SEM): treated flank organ
Description: Male intact Golden Syrian hamsters are considered acceptable models for human beard hair growth in that they display oval shaped flank organs, one on each side, each about 8 mm. in major diameter, which grow thick black and coarse hair similar to human beard hair. These organs produce hair in response to androgens in the hamster. To evaluate the effectiveness of a particular OAT inhibitor, the flank organs of each of a group of hamsters are depilated by applying a thioglycolate based chemical depilatory (Surgex). To one organ of each animal 10-25 μl. of vehicle alone once a day is applied, while to the other organ of each animal an equal amount of vehicle containing an OAT inhibitor is applied. After thirteen applications (one application per day for five days a week), the flank organs are shaved and the amount of recovered hair (hair mass) from each is weighed. Percent-reduction of hair growth is calculated by subtracting the hair mass (mg) value of the test compound treated side from the hair mass value of the vehicle treated side; the delta value obtained is then divided by the hair mass value of the vehicle treated side, and the resultant number is multiplied by 100.
The above-described assay will be referred to herein as the "Golden Syrian hamster" assay. Preferred compositions provide an reduction in hair growth of at least about 35%, more preferably at least about 50%, and most preferably at least about 70% when tested in the Golden Syrian hamster assay.
The vehicle used in the compositions tested was 68% deionized water, 16% absolute ethanol, 5% propylene glycol, 5% dipropylene glycol, 4% benzoyl alcohol, and 2% propylene carbonate.

[1] = molecular target: T1, ornithine aminotransferase (OAT) (Mesocricetus auratus, UniProt A0A1U7QEB0); test: OAT activity assay in hair follicles (P5C formation, HPLC of DHQ); type: biochemical, hamster
T1 construct: Assays (including the initial assays) were conducted utilizing excised hamster flank organ follicles; from tissue; host or cells: hamster flank organ hair follicles, minced, sonicated and centrifuged; supernatant assayed
T1 sequence (A0A1U7QEB0 1-439): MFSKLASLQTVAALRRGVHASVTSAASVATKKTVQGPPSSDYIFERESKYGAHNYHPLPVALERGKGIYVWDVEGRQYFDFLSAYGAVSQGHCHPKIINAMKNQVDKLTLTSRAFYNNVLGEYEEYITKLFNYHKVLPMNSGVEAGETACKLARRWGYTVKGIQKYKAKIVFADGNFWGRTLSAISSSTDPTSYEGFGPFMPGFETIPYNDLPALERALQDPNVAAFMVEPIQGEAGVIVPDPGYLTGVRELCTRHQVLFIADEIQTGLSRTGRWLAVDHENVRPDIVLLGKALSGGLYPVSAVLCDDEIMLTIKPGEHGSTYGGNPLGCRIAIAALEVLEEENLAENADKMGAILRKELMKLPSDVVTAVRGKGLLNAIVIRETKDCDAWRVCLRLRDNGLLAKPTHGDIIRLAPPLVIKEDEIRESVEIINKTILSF
Description: The following assay for OAT activity based on the procedure of O'Donnell et al., Analytical Biochemistry 90, 41-46 (1978) was adapted for OAT measurements in hair follicles, and can be used to evaluate the effectiveness of OAT inhibitors in reducing OAT activity.
The product of OAT activity, pyrroline-5-carboxylic acid (P5C), was measured by reverse-phase HPLC analysis of dihydroquinazolium ion (DHQ). DHQ is a reaction product of PSC and o-aminobenzylaldehyde (OAB). The analysis was performed with a Waters 490 UV detector. The amount of DHQ formed was directly proportional to the concentration of P5C. The sensitivity of the Waters 490 UV detector had been determined to be above 100 picomoles of PSC injected and was reasonably linear.
Initial assays of flank organ follicle OAT activity were conducted employing saturating doses of ornithine (350 mM). The OAT mediated conversion of ornithine to P5C was monitored by measuring in vitro PSC formation, resulting in time and concentration dependent increases in PSC.
Assays (including the initial assays) were conducted utilizing excised hamster flank organ follicles. The excised hamster follicles were diluted in assay buffer (2 follicles/300 μl) and then were minced with scissors and homogenized with a sonicator. The resultant homogenate was centrifuged to obtain a cytosolic supernatant which was assayed for OAT. Samples were incubated for one hour with either Gabaculin, L-Canaline, or 5-FMOrn at 1 mM, 100 μM, 10 μM, and 1 μM concentrations. The concentration of P5C was then assayed.

[2] = 10 μM, one hour incubation, flank organ follicle supernatant
[3] = 100 μM, one hour incubation, flank organ follicle supernatant, read-out: Percent Inhibition (OAT)

## NC(CF)CCC(N)C(=O)O (stereo not shown) [5-FMOrn, 6-fluoro-2,5-diaminohexanoic acid]
Flank organs hair growth; 5% in vehicle
  % Reduction (of hair growth, mean ± SEM): 66.02 ± 6.30%
  Treated (hair mass, mean ± SEM): .616 ± .15 mg
Flank organs hair growth; 15% in vehicle
  % Reduction (of hair growth, mean ± SEM): 84.55 ± 2.47%
  Treated (hair mass, mean ± SEM): .322 ± .07 mg
[1]; 1 μM, one hour incubation
  nm P5C formed/fol/1 hr: 31.419 nm P5C formed/fol/1 hr
[1]; 1 μM, one hour incubation, flank organ follicle supernatant
  Percent Inhibition (OAT): No OAT inhibition and none
[1]; 10 μM, one hour incubation
  nm P5C formed/fol/1 hr: 29.327 nm P5C formed/fol/1 hr
[1]; [2]
  Percent Inhibition (OAT): No OAT inhibition and none
[1]; 100 μM, one hour incubation
  nm P5C formed/fol/1 hr: 19.562 nm P5C formed/fol/1 hr
[1]; 1 mM, pH = 7.5, one hour incubation
  nm P5C formed/fol/1 hr: 3.334 nm P5C formed/fol/1 hr
[1]; 1 mM, pH = 7.5, one hour incubation, flank organ follicle supernatant
  Percent Inhibition (OAT): 83.036%
[1]; read-out: Percent Inhibition (OAT), 100 μM, one hour incubation, flank organ follicle supernatant
  inhibition at 100 µM: 0.471%
[1]; read-out: Percent Inhibition (OAT), 1 mM, pH = 7.5, one hour incubation, flank organ follicle supernatant
  inhibition at 1000 µM: 83%

## NOCC[C@H](N)C(=O)O [Canaline, (S)-2-amino-4-amino-oxybutyric acid]
Flank organs hair growth; 2% in vehicle
  % Reduction (of hair growth, mean ± SEM): 20.99 ± 7.70%
  Treated (hair mass, mean ± SEM): 1.553 ± .20 mg
Flank organs hair growth; 10% in vehicle
  % Reduction (of hair growth, mean ± SEM): 44.50 ± 7.40%
  Treated (hair mass, mean ± SEM): .790 ± .11 mg
[1]; 1 μM, one hour incubation
  nm P5C formed/fol/1 hr: 29.859 nm P5C formed/fol/1 hr
[1]; 1 μM, one hour incubation, flank organ follicle supernatant, listed as L-Canaline
  Percent Inhibition (OAT): no inhibition and none
[1]; 10 μM, one hour incubation
  nm P5C formed/fol/1 hr: 24.096 nm P5C formed/fol/1 hr
[1]; 10 μM, one hour incubation, flank organ follicle supernatant, listed as L-Canaline
  Percent Inhibition (OAT): no inhibition and none
[1]; 100 μM, one hour incubation
  nm P5C formed/fol/1 hr: 14.612 nm P5C formed/fol/1 hr
[1]; 100 μM, one hour incubation, flank organ follicle supernatant, listed as L-Canaline
  Percent Inhibition (OAT): 25.653%
[1]; [3]
  inhibition at 100 µM: 25%
[1]; 1 mM, pH = 7.5, one hour incubation, flank organ follicle supernatant, read-out: Percent Inhibition (OAT)
  inhibition at 1000 µM: 100%

## NC1C=CC=C(C(=O)O)C1 (stereo not shown) [Gabaculin, 3-amino-2,3-dihydrobenzoic acid]
Flank organs hair growth; 10% in vehicle
  % Reduction (of hair growth, mean ± SEM): 43.06 ± 2.72%
  Treated (hair mass, mean ± SEM): 1.365 ± .14 mg
Flank organs hair growth; 25% in vehicle
  % Reduction (of hair growth, mean ± SEM): 48.08 ± 5.00%
  Treated (hair mass, mean ± SEM): 1.266 ± .11 mg
[1]; 1 μM, one hour incubation
  nm P5C formed/fol/1 hr: 19.637 nm P5C formed/fol/1 hr
[1]; 1 μM, one hour incubation, flank organ follicle supernatant, read-out: Percent Inhibition (OAT)
  inhibition at 1 µM: 0.089%
[1]; 10 μM, one hour incubation
  nm P5C formed/fol/1 hr: 5.057 nm P5C formed/fol/1 hr
[1]; [2]
  Percent Inhibition (OAT): 74.268%
[1]; 10 μM, one hour incubation, flank organ follicle supernatant, read-out: Percent Inhibition (OAT)
  inhibition at 10 µM: 75%
[1]; [3]
  inhibition at 100 µM: 100%
[1]; 1 mM, one hour incubation, flank organ follicle supernatant, read-out: Percent Inhibition (OAT)
  inhibition at 1000 µM: 100%
[1]; comparison of Gabaculin, L-Canaline and 5-FMOrn
  relative potency as OAT inhibitor: most potent inhibitor

Reference: patent US5474763A, “Reduction of hair growth” (priority 1994, dated 1995)
